Source: ChEMBL document CHEMBL5226321, “Ivermectin: A Promising Therapeutic for Fighting Malaria. Current Status and Perspective” (J Med Chem, 2021)

Key:
Anopheles sp. [1] = assay: Insecticidal in Anopheles sp. infected with Plasmodium falciparum gametocytes assessed as reduction in survival fed with compound treated bovine blood at 200 microg/kg feeding at 7 days after injection relative to control; type: functional, organism-based; details: dose 200.0 µg/kg
Aedes aegypti = assay: Insecticidal in Aedes aegypti larvae measured after 48 hrs; type: functional
Culex pipiens = assay: Insecticidal in Culex pipiens larvae measured after 48 hrs; type: functional
Anopheles arabiensis [2] = assay: Insecticidal in Anopheles arabiensis assessed as reduction in fecundity fed with compound treated bovine blood at 200 microg/kg relative to control; type: functional, organism-based; parameters: scale not given: the % may be the effect or the level left; details: dose 200.0 µg/kg
Plasmodium vivax = assay: Antimalarial activity against Plasmodium vivax assessed as reduction in […] in Anopheles sp. mosquito midgut fed with blood isolated from compound treated parasite-infected human at 40 ng/ml observed after 7 days relative to control; type: functional, organism-based; details: time 7.0 day
Anopheles stephensi [3] = assay: Insecticidal in Anopheles stephensi assessed as mortality rate fed with blood of compound treated mouse at […], sc before 12 hrs and observed after 36 hrs relative to control; type: functional, organism-based
Plasmodium berghei [4] = assay: In vivo antimalarial activity against liver stage Plasmodium berghei infected in mouse assessed as increase in mouse survival days at 10 mg/kg; type: functional, organism-based
Anopheles sp. [5] = assay: Insecticidal in Anopheles sp. infected with Plasmodium falciparum gametocytes assessed as mortality fed with compound treated bovine blood at 200 microg/kg observed within 2.87 days feeding at 2 days post treatment relative to control; type: functional, organism-based; details: dose 200.0 µg/kg, time 2.87 day
Anopheles gambiae = assay: Insecticidal in Anopheles gambiae assessed as mortality fed with compound treated bovine blood at 6 ng/mL observed for 10 days relative to control; type: functional, organism-based; details: time 10.0 day
Anopheles stephensi [6] = assay: Insecticidal in Anopheles stephensi assessed as mortality rate with blood of compound treated mouse at 82 microg/kg observed within 36 hrs relative to control; type: functional, organism-based; details: dose 82.0 µg/kg
Anopheles sp. [7] = assay: Insecticidal in Anopheles sp. assessed as number of eggs per female fed with compound treated human blood administered as a single dose at 10 microg/ml fed at 4 hrs post treatment; type: functional, organism-based; details: dose 10.0 µg/ml
Plasmodium berghei [8] = assay: In vivo antimalarial activity against blood stage Plasmodium berghei transfected with GFP infected in mouse assessed as supression of parasitemia at 0.5 mg/kg for 3 days relative to control; type: functional, organism-based; details: time 3.0 day
Anopheles arabiensis [9] = assay: Insecticidal in Anopheles arabiensis assessed as mortality observed within 48 hrs after ingestion relative to control; type: functional, organism-based
Anopheles sp. [10] = assay: Insecticidal in Anopheles sp. infected with Plasmodium vivax assessed as lethality fed with blood isolated from compound treated human observed for 5 days; type: functional, organism-based; details: time 5.0 day

Work on IVERMECTIN yielded a Survival (Anopheles sp. [1]) of 83%, an LC50 (Aedes aegypti) of 23.4 ppb and an LC50 (Culex pipiens) of 3.94 ppb. The Activity (Anopheles arabiensis [2]) was 79%, the inhibition (Plasmodium vivax) was 86% and the mortality (Anopheles stephensi [3]) was 100%. It also gave a Survival (Plasmodium berghei [4]) of 10 days, a mortality (Anopheles sp. [5]) of 100% and a mortality (Anopheles gambiae) of 50%. The mortality (Anopheles stephensi [6]) was 100%, the Activity (Anopheles sp. [7]) was 22.4 and the Activity (Plasmodium berghei [8]) was 40%. The mortality (Anopheles arabiensis [9]) was 95% and the LC5 (Anopheles sp. [10]) was 18.3 ng/mL.
